Test results: publication PMC6443876, “Molecular structure of a 5,10‐methylenetetrahydrofolate dehydrogenase from the silkworm Bombyx mori” (FEBS Open Bio, 2019)
Values belong to the compound of their own block, whether it stands above or below them.

Tests used:
bmMTHFD [1] = molecular target: T1, bmMTHFD (Bombyx mori, UniProt H9IYM1, S46A); assay: endpoint absorbance at […] nm, Michaelis-Menten fit; format: biochemical; details: dehydrogenase activity, 20 mM sodium phosphate pH 6.5, 30 mM 2-mercaptoethanol, 28 °C
T1 construct: gene method; full-length ORF (906 bp, 301 residues, 32 733 Da), pET-15b (NdeI/BamHI); homodimer ~63 kDa; cDNA from larval fat body
T1 sequence (H9IYM1 entry or part of it S46A): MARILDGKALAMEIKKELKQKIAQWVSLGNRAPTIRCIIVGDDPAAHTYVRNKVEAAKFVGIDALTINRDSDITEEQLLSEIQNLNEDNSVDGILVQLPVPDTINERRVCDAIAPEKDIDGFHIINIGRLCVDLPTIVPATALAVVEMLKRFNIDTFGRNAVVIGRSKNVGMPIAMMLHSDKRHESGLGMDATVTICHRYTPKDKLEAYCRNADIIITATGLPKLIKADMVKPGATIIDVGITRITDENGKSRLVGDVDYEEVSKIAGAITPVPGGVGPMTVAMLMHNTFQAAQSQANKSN

bmMTHFD [2] = molecular target: T2, bmMTHFD (Bombyx mori, UniProt H9IYM1, K53A); assay: endpoint absorbance at […] nm, Michaelis-Menten fit; format: biochemical; details: dehydrogenase activity, 20 mM sodium phosphate pH 6.5, 30 mM 2-mercaptoethanol, 28 °C
T2 construct: gene method; full-length ORF (906 bp, 301 residues, 32 733 Da), pET-15b (NdeI/BamHI); homodimer ~63 kDa; cDNA from larval fat body
T2 sequence (H9IYM1 entry or part of it K53A): as the sequence (H9IYM1 entry or part of it S46A) above, with A46S, K53A counted along it

bmMTHFD [3] = molecular target: T3, bmMTHFD (Bombyx mori, UniProt H9IYM1, D120A); assay: endpoint absorbance at […] nm, Michaelis-Menten fit; format: biochemical; details: dehydrogenase activity; MTHF as co-substrate; 20 mM sodium phosphate pH 6.5, 30 mM 2-mercaptoethanol, 28 °C
T3 construct: gene method; full-length ORF (906 bp, 301 residues, 32 733 Da), pET-15b (NdeI/BamHI); homodimer ~63 kDa; cDNA from larval fat body
T3 sequence (H9IYM1 entry or part of it D120A): as the sequence (H9IYM1 entry or part of it S46A) above, with A46S, D120A counted along it

bmMTHFD [4] = molecular target: T4, bmMTHFD (Bombyx mori, UniProt H9IYM1); assay: endpoint absorbance at […] nm, Michaelis-Menten fit; format: biochemical; details: dehydrogenase activity, 20 mM sodium phosphate pH 6.5, 30 mM 2-mercaptoethanol, 28 °C
T4 construct: gene method; full-length ORF (906 bp, 301 residues, 32 733 Da), pET-15b (NdeI/BamHI); homodimer ~63 kDa; cDNA from larval fat body
T4 sequence (H9IYM1 1-301): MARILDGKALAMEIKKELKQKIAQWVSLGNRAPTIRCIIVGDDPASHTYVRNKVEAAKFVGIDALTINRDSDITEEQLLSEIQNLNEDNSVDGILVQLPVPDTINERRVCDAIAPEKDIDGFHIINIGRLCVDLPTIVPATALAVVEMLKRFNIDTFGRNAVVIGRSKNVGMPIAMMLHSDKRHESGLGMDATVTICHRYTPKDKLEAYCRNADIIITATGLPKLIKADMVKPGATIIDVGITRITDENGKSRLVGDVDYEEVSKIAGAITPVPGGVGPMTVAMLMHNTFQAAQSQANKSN

bmMTHFD [5] = molecular target: T4, bmMTHFD; assay: decrease in absorption at […] nm, Michaelis-Menten fit; format: biochemical; details: cyclohydrolase activity; 0.1 M potassium maleate pH 7.4, 0.02 M 2-mercaptoethanol, 30 °C
bmMTHFD [6] = molecular target: T2, bmMTHFD; assay: as above; format: biochemical; details: cyclohydrolase activity; 0.1 M potassium maleate pH 7.4, 0.02 M 2-mercaptoethanol, 30 °C
bmMTHFD [7] = molecular target: T3, bmMTHFD; assay: as above; format: biochemical; details: cyclohydrolase activity; 0.1 M potassium maleate pH 7.4, 0.02 M 2-mercaptoethanol, 30 °C
bmMTHFD [8] = molecular target: T5, bmMTHFD (Bombyx mori, UniProt H9IYM1, Q97A); assay: as above; format: biochemical; details: cyclohydrolase activity; 0.1 M potassium maleate pH 7.4, 0.02 M 2-mercaptoethanol, 30 °C
T5 construct: gene method; full-length ORF (906 bp, 301 residues, 32 733 Da), pET-15b (NdeI/BamHI); homodimer ~63 kDa; cDNA from larval fat body
T5 sequence (H9IYM1 entry or part of it Q97A): as the sequence (H9IYM1 entry or part of it S46A) above, with A46S, Q97A counted along it

bmMTHFD [9] = molecular target: T5, bmMTHFD; assay: endpoint absorbance at […] nm, Michaelis-Menten fit; format: biochemical; details: dehydrogenase activity; NADP+ as cofactor; 20 mM sodium phosphate pH 6.5, 30 mM 2-mercaptoethanol, 28 °C
[10] = molecular target: Bombyx mori 5,10-methylenetetrahydrofolate dehydrogenase (Bombyx mori); assay: SEC; Superdex 200 analytical gel filtration, calibrated with protein standards (thyroglobulin, globulin, ovalbumin, myoglobin); bmMTHFD eluted at 205 mL, corresponding to 63 kDa

S46A (bmMTHFD [1]; MTHF as co-substrate): 0.98 (± 1.3 × 10^−1) mM
K53A (bmMTHFD [2]; MTHF as co-substrate): 0.62 (± 6.5 × 10^−2) mM
D120A (bmMTHFD [3]): 2.0 (± 1.4 × 10^−1) mM
WT (bmMTHFD [4]; MTHF as co-substrate): 0.22 (± 1.0 × 10^−2) mM
Compound: NC(=O)c1ccc[n+]([C@@H]2O[C@H](COP(=O)(O)OP(=O)(O)OC[C@H]3O[C@@H](n4cnc5c(N)ncnc54)[C@H](OP(=O)(O)O)[C@@H]3O)[C@@H](O)[C@H]2O)c1 [NADP^+]

WT (bmMTHFD [5]): 0.13 (± 6.0 × 10^−3) mM
K53A (bmMTHFD [6]): 0.16 (± 1.5 × 10^−2) mM
D120A (bmMTHFD [7]): 0.23 (± 2.5 × 10^−2) mM
Q97A (bmMTHFD [8]): 0.019 (± 2.5 × 10^−3) mM
Compound: Nc1nc2c(c(=O)[nH]1)[N+]1=CN(c3ccc(C(=O)N[C@@H](CCC(=O)O)C(=O)O)cc3)C[C@H]1CN2 [5,10-methenyl-THF]

S46A (bmMTHFD [1]; NADP+ as cofactor): 0.19 (± 4.8 × 10^−3) mM
K53A (bmMTHFD [2]; NADP+ as cofactor): 1.1 (± 1.8 × 10^−2) mM
WT (bmMTHFD [4]; NADP+ as cofactor): 0.51 (± 3.3 × 10^−2) mM
Q97A (bmMTHFD [9]): 0.81 (± 2.8 × 10^−2) mM
Compound: Nc1nc2c(c(=O)[nH]1)N1CN(c3ccc(C(=O)N[C@@H](CCC(=O)O)C(=O)O)cc3)C[C@H]1CN2 [MTHF]

D120A (bmMTHFD [3]): 2.0 (± 9.0 × 10^−2) mM
WT (bmMTHFD [4]; MTHF as co-substrate): 0.27 (± 2.0 × 10^−2) mM
Compound: NC(=O)c1ccc[n+]([C@@H]2O[C@H](COP(=O)(O)OP(=O)(O)OC[C@H]3O[C@@H](n4cnc5c(N)ncnc54)[C@H](O)[C@@H]3O)[C@@H](O)[C@H]2O)c1 [NAD^+]

stoichiometry N [10]: 2
Compound: Bombyx mori 5,10-methylenetetrahydrofolate dehydrogenase (enzyme)
